Experimental data from patent US12552783B2, “Modulators of proteolysis and associated methods of use” (Arvinas Operations, Inc., priority 2018, dated 2026).

Molecular target: KRas (Homo sapiens, UniProt P01116, G12C)
Assay: KRas degradation in NCI-H2030 cells by Western blot, normalized to GAPDH (data of Table 14)
Assay type: cell-based
Set-up: host or cells: NCI-H2030
Settings: for Dmax: NCI-H2030
In short: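 After overnight adherence and 24 h without FBS, compounds added at 0.3, 1 or 3 μM (0.1% DMSO) for 24 h (VHL-based) or 72 h (others). Western blot of RIPA lysates, KRas signal over GAPDH relative to DMSO; DC50 and DMax derived, or <25% scored visually.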

Row | Compound | Percent Degradation at Indicated Concentration (μM) (H2030, 0.3 μM) | Percent Degradation at Indicated Concentration (μM) (H2030, 1 μM) | Percent Degradation at Indicated Concentration (μM) (H2030, 3 μM) | Dmax | Percent Degradation at Indicated Concentration (μM) (H2030 cells, 0.3 μM) | Percent Degradation at Indicated Concentration (μM) (H2030 cells, 1 μM) | Percent Degradation at Indicated Concentration (μM) (H2030 cells, 3 μM) | Percent Degradation at Indicated Concentration (μM): 0.3 (H2030 cells, 0.3 μM) | Percent Degradation at Indicated Concentration (μM): 1 (H2030 cells, 1 μM) | Percent Degradation at Indicated Concentration (μM): 3 (H2030 cells, 3 μM) | Dmax (H2030 cells)
1 | C=CC(=O)N1CCN(c2nc(NCCC(=O)N(C)CCOCCOCCOCCOc3cc(-c4scnc4C)ccc3CNC(=O)[C@@H]3C[C@@H](O)CN3C(=O)[C@@H](c3cc(C)no3)C(C)C)nc3c(F)c(-c4cc(O)cc5ccccc45)c(Cl)cc23)CC1 [compound 343, (2S,4R)-N-(2-((15-((4-(4-acryloylpiperazin-1-yl)-6-chloro-8-fluoro-7-(3-hydroxynaphthalen-1-yl)quinazolin-2-yl)amino)-12-methyl-13-oxo-3,6,9-trioxa-12-azapentadecyl)oxy)-4-(4-methylthiazol-5-yl)benzyl)-4-hydroxy-1-((R)-3-methyl-2-(3-methylisoxazol-5-yl)butanoyl)pyrrolidine-2-carboxamide] | C (Percent Degradation: C ≤ 35) | C (Percent Degradation: C ≤ 35) | C (Percent Degradation: C ≤ 35) | ≤ 35% | – | – | – | – | – | – | –
2 | C=CC(=O)N1CCN(c2nc(O[C@H](C)CN3CCC(OCCOCCOCCOc4ccc5c(c4)CN(C4CCC(=O)NC4=O)C5=O)CC3)nc3c2CCN(c2cc(O)cc4ccccc24)C3)CC1 (stereo partly drawn) [compound 423, 3-(5-(2-(2-(2-((1-((R)-2-((4-(4-acryloylpiperazin-1-yl)-7-(3-hydroxynaphthalen-1-yl)-5,6,7,8-tetrahydropyrido[3,4-d]pyrimidin-2-yl)oxy)propyl)piperidin-4-yl)oxy)ethoxy)ethoxy)ethoxy)-1-oxoisoindolin-2-yl)piperidine-2,6-dione] | – | – | – | – | C (Percent Degradation: C ≤ 35) | C (Percent Degradation: C ≤ 35) | C (Percent Degradation: C ≤ 35) | – | – | – | –
3 | CN(CCOCCOc1ccc2c(c1)C(=O)N(C1CCC(=O)NC1=O)C2=O)C(=O)CCNc1nc(N2CCN(C(N)=O)CC2)c2cc(Cl)c(-c3cc(O)cc4ccccc34)c(F)c2n1 (stereo not shown) [compound 27, 4-(6-chloro-2-((3-((2-(2-((2-(2,6-dioxopiperidin-3-yl)-1,3-dioxoisoindolin-5-yl)oxy)ethoxy)ethyl)(methyl)amino)-3-oxopropyl)amino)-8-fluoro-7-(3-hydroxynaphthalen-1-yl)quinazolin-4-yl)piperazine-1-carboxamide] | C (Percent Degradation: C ≤ 35) | C (Percent Degradation: C ≤ 35) | C (Percent Degradation: C ≤ 35) | ≤ 35% | – | – | – | – | – | – | –
4 | C=CC(=O)N1CCN(c2nc(NCCC(=O)N(C)CCOCCOCCOCCOCCOc3ccc4c(c3)C(=O)N(C3CCC(=O)NC3=O)C4=O)nc3c(F)c(-c4c(O)cccc4F)c(Cl)cc23)CC1 [compound 75, 3-(((S)-4-(4-acryloylpiperazin-1-yl)-6-chloro-8-fluoro-7-(2-fluoro-6-hydroxyphenyl)quinazolin-2-yl)amino)-N-(14-((2-(2,6-dioxopiperidin-3-yl)-1,3-dioxoisoindolin-5-yl)oxy)-3,6,9,12-tetraoxatetradecyl)-N-methylpropanamide] | C (Percent Degradation: C ≤ 35) | C (Percent Degradation: C ≤ 35) | C (Percent Degradation: C ≤ 35) | ≤ 35% | – | – | – | – | – | – | –
5 | CC(=O)N1CCN(c2nc(NCCC(=O)N(C)CCOCCOCCOCCOCCOCC(=O)N[C@H](C(=O)N3C[C@H](O)C[C@H]3C(=O)N[C@@H](C)c3ccc(-c4scnc4C)cc3)C(C)(C)C)nc3c(F)c(-c4cc(O)cc5ccccc45)c(Cl)cc23)CC1 [compound 204, (2S,4R)-1-((2S)-24-((4-(4-acetylpiperazin-1-yl)-6-chloro-8-fluoro-7-(3-hydroxynaphthalen-1-yl)quinazolin-2-yl)amino)-2-(tert-butyl)-21-methyl-4,22-dioxo-6,9,12,15,18-pentaoxa-3,21-diazatetracosanoyl)-4-hydroxy-N-((S)-1-(4-(4-methylthiazol-5-yl)phenyl)ethyl)pyrrolidine-2-carboxamide] | C (Percent Degradation: C ≤ 35) | C (Percent Degradation: C ≤ 35) | C (Percent Degradation: C ≤ 35) | ≤ 35% | – | – | – | – | – | – | –

Results, then the molecule that gave them:

Row | Percent Degradation at Indicated Concentration (μM) (H2030, 0.3 μM) | Percent Degradation at Indicated Concentration (μM) (H2030, 1 μM) | Percent Degradation at Indicated Concentration (μM) (H2030, 3 μM) | Dmax | Percent Degradation at Indicated Concentration (μM) (H2030 cells, 0.3 μM) | Percent Degradation at Indicated Concentration (μM) (H2030 cells, 1 μM) | Percent Degradation at Indicated Concentration (μM) (H2030 cells, 3 μM) | Percent Degradation at Indicated Concentration (μM): 0.3 (H2030 cells, 0.3 μM) | Percent Degradation at Indicated Concentration (μM): 1 (H2030 cells, 1 μM) | Percent Degradation at Indicated Concentration (μM): 3 (H2030 cells, 3 μM) | Dmax (H2030 cells) | Compound
6 | C (Percent Degradation: C ≤ 35) | C (Percent Degradation: C ≤ 35) | C (Percent Degradation: C ≤ 35) | ≤ 35% | – | – | – | – | – | – | – | Cc1ncsc1-c1ccc([C@H](C)NC(=O)[C@@H]2C[C@@H](O)CN2C(=O)[C@@H](NC(=O)COCCOCCOCCOCCN(C)C(=O)CCNc2nc(N3CCN(C(N)=O)CC3)c3cc(Cl)c(-c4cc(O)cc5ccccc45)c(F)c3n2)C(C)(C)C)cc1 [compound 184, 4-(6-chloro-8-fluoro-2-(((S)-20-((2S,4R)-4-hydroxy-2-(((S)-1-(4-(4-methylthiazol-5-yl)phenyl)ethyl)carbamoyl)pyrrolidine-1-carbonyl)-4,21,21-trimethyl-3,18-dioxo-7,10,13,16-tetraoxa-4,19-diazadocosyl)amino)-7-(3-hydroxynaphthalen-1-yl)quinazolin-4-yl)piperazine-1-carboxamide]
7 | C (Percent Degradation: C ≤ 35) | C (Percent Degradation: C ≤ 35) | C (Percent Degradation: C ≤ 35) | ≤ 35% | – | – | – | – | – | – | – | Cc1ncsc1-c1ccc([C@H](C)NC(=O)[C@@H]2C[C@@H](O)CN2C(=O)[C@@H](NC(=O)COCC/C=C/C(=O)N2CCN(c3nc(NCCC(=O)N(C)C)nc4c(F)c(-c5cc(O)cc6ccccc56)c(Cl)cc34)CC2)C(C)(C)C)cc1 [compound 363, (2S,4R)-1-((2S)-2-(2-(((E)-5-(4-(6-chloro-2-((3-(dimethylamino)-3-oxopropyl)amino)-8-fluoro-7-(3-hydroxynaphthalen-1-yl)quinazolin-4-yl)piperazin-1-yl)-5-oxopent-3-en-1-yl)oxy)acetamido)-3,3-dimethylbutanoyl)-4-hydroxy-N-((S)-1-(4-(4-methylthiazol-5-yl)phenyl)ethyl)pyrrolidine-2-carboxamide]
8 | C (Percent Degradation: C ≤ 35) | C (Percent Degradation: C ≤ 35) | C (Percent Degradation: C ≤ 35) | ≤ 35% | – | – | – | – | – | – | – | C=CC(=O)N1CCN(c2nc(NCCC(=O)N(C)CCOCCNC(=O)c3ccc(NC(=O)[C@@H]4N[C@@H](CC(C)(C)C)[C@](C#N)(c5ccc(Cl)cc5F)[C@H]4c4cccc(Cl)c4F)c(OC)c3)nc3c(F)c(-c4c(O)cccc4F)c(Cl)cc23)CC1 (atropisomer, axis not shown) [compound 307, (2R,3S,4R,5S)-N-(4-((2-(2-(3-((4-(4-acryloylpiperazin-1-yl)-6-chloro-8-fluoro-7-((S)-2-fluoro-6-hydroxyphenyl)quinazolin-2-yl)amino)-N-methylpropanamido)ethoxy)eth-yl)carbamoyl)-2-methoxyphenyl)-3-(3-chloro-2-fluorophenyl)-4-(4-chloro-2-fluorophenyl)-4-cyano-5-neopentylpyrrolidine-2-carboxamide]
9 | – | – | – | – | – | – | – | C (C ≤ 35) | C (C ≤ 35) | C (C ≤ 35) | ≤ 35% | CCC(=O)N1CCN(c2nc(NCCC(=O)N(C)CCNc3cccc4c3C(=O)N(C3CCC(=O)NC3=O)C4=O)nc3c(F)c(-c4cc(O)cc5ccccc45)c(Cl)cc23)CC1 (stereo not shown) [compound 41, 3-((6-chloro-8-fluoro-7-(3-hydroxynaphthalen-1-yl)-4-(4-propionylpiperazin-1-yl)quinazolin-2-yl)amino)-N-(2-((2-(2,6-dioxopiperidin-3-yl)-1,3-dioxoisoindolin-4-yl)amino)ethyl)-N-methylpropanamide]
10 | C (Percent Degradation: C ≤ 35) | C (Percent Degradation: C ≤ 35) | C (Percent Degradation: C ≤ 35) | ≤ 35% | – | – | – | – | – | – | – | Cc1ncsc1-c1ccc([C@H](C)NC(=O)[C@@H]2C[C@@H](O)CN2C(=O)[C@@H](NC(=O)COCCOCC/C=C/C(=O)N2CCN(c3ncnc4c(F)c(-c5cc(O)cc6ccccc56)c(Cl)cc34)CC2)C(C)(C)C)cc1 [compound 373, (2S,4R)-1-((2S)-2-(2-(2-(((E)-5-(4-(6-chloro-8-fluoro-7-(3-hydroxynaphthalen-1-yl)quinazolin-4-yl)piperazin-1-yl)-5-oxopent-3-en-1-yl)oxy)ethoxy)acetamido)-3,3-dimethylbutanoyl)-4-hydroxy-N-((S)-1-(4-(4-methylthiazol-5-yl)phenyl)ethyl)pyrrolidine-2-carboxamide]
11 | C (Percent Degradation: C ≤ 35) | C (Percent Degradation: C ≤ 35) | C (Percent Degradation: C ≤ 35) | ≤ 35% | – | – | – | – | – | – | – | C=CC(=O)N1CCN(c2nc(NCCC(=O)N(C)CCOCCOCCOCCOc3ccc(-c4csc([C@@H]5CCCN5C(=O)[C@@H](NC(=O)[C@H](C)NC)C5CCCCC5)n4)c4ccccc34)nc3c(F)c(-c4c(O)cccc4F)c(Cl)cc23)CC1 (atropisomer, axis not shown) [compound 278, 3-((4-(4-acryloylpiperazin-1-yl)-6-chloro-8-fluoro-7-((S)-2-fluoro-6-hydroxyphenyl)quinazolin-2-yl)amino)-N-(2-(2-(2-(2-((4-(2-((S)-1-((S)-2-cyclohexyl-2-((S)-2-(methylamino)propan-amido)acetyl)pyrrolidin-2-yl)thiazol-4-yl)naphthalen-1-yl)oxy)ethoxy)ethoxy)eth-oxy)ethyl)-N-methylpropanamide]
